Measured values as given in PubChem BioAssay (NCI).
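Step 1: Grow cells in 96-well plates. Step 2: Expose to compound for 48 hours at 5 concentrations. Step 3: Interpolate endpoints linearly; if unreached, use highest concentration. Definition used: TGI = concentration required for complete inhibition of growth.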

Tests used:
Assay in all cases: NCI tumour cell line growth inhibition, 48 h
KM12 colon = tested on: KM12 colon
HCT-15 colon = tested on: HCT-15 colon
PC-3 prostate = tested on: PC-3 prostate
UO-31 renal = tested on: UO-31 renal
NCI-H522 lung = tested on: NCI-H522 lung
MDA-MB-435 = tested on: MDA-MB-435
U251 CNS = tested on: U251 CNS
HOP-92 NSCLC = tested on: HOP-92 NSCLC
A498 renal = tested on: A498 renal
SF-295 CNS = tested on: SF-295 CNS
M14 melanoma = tested on: M14 melanoma
EKVX NSCLC = tested on: EKVX NSCLC
SNB-19 CNS = tested on: SNB-19 CNS
SW-620 colon = tested on: SW-620 colon
ACHN renal = tested on: ACHN renal
TK-10 renal = tested on: TK-10 renal
BT-549 breast = tested on: BT-549 breast
NCI-H460 lung = tested on: NCI-H460 lung
SK-MEL-28 melanoma = tested on: SK-MEL-28 melanoma
UACC-62 melanoma = tested on: UACC-62 melanoma
HOP-62 NSCLC = tested on: HOP-62 NSCLC
MCF7 breast = tested on: MCF7 breast
RPMI-8226 leukemia = tested on: RPMI-8226 leukemia
T-47D breast = tested on: T-47D breast
NCI-H23 lung = tested on: NCI-H23 lung
OVCAR-5 ovarian = tested on: OVCAR-5 ovarian
SR leukemia = tested on: SR leukemia
SF-268 CNS = tested on: SF-268 CNS
COLO 205 colon = tested on: COLO 205 colon
SK-MEL-2 melanoma = tested on: SK-MEL-2 melanoma
MALME-3M melanoma = tested on: MALME-3M melanoma
OVCAR-8 ovarian = tested on: OVCAR-8 ovarian
MDA-N = tested on: MDA-N
A549 NSCLC = tested on: A549 NSCLC
SK-OV-3 ovarian = tested on: SK-OV-3 ovarian
LOX IMVI melanoma = tested on: LOX IMVI melanoma
HCT-116 colon = tested on: HCT-116 colon
CAKI-1 renal = tested on: CAKI-1 renal
OVCAR-4 ovarian = tested on: OVCAR-4 ovarian
RXF 393 renal = tested on: RXF 393 renal
DU-145 prostate = tested on: DU-145 prostate
UACC-257 melanoma = tested on: UACC-257 melanoma
HS 578T breast = tested on: HS 578T breast
SK-MEL-5 melanoma = tested on: SK-MEL-5 melanoma
IGROV1 ovarian = tested on: IGROV1 ovarian
SN12C renal = tested on: SN12C renal
CCRF-CEM leukemia = tested on: CCRF-CEM leukemia
MDA-MB-231 breast = tested on: MDA-MB-231 breast
HT29 colon = tested on: HT29 colon
MOLT-4 leukemia = tested on: MOLT-4 leukemia
786-0 renal = tested on: 786-0 renal
SF-539 CNS = tested on: SF-539 CNS
NCI/ADR-RES ovarian = tested on: NCI/ADR-RES ovarian
NCI-H226 lung = tested on: NCI-H226 lung
OVCAR-3 ovarian = tested on: OVCAR-3 ovarian
K-562 leukemia = tested on: K-562 leukemia
HL-60(TB) leukemia = tested on: HL-60(TB) leukemia
HCC-2998 colon = tested on: HCC-2998 colon
SNB-75 CNS = tested on: SNB-75 CNS

`Nc1nc(N)[n+]([O-])c(N)c1NCO` was tested, and the TGI (KM12 colon) was > 100 µM, the TGI (HCT-15 colon) was > 100 µM and the TGI (PC-3 prostate) was > 100 µM. For the same molecule, the TGI (UO-31 renal) was > 100000 nM, the TGI (NCI-H522 lung) was > 100 µM and the TGI (MDA-MB-435) was > 100 µM. For the same molecule, the TGI (U251 CNS) was > 100 µM, the TGI (HOP-92 NSCLC) was > 100 µM and the TGI (A498 renal) was > 100 µM. The TGI (SF-295 CNS) was > 100 µM, the TGI (M14 melanoma) was > 100 µM and the TGI (EKVX NSCLC) was > 100 µM. The TGI (SNB-19 CNS) was > 100 µM, the TGI (SW-620 colon) was > 100 µM and the TGI (ACHN renal) was > 100 µM. The TGI (TK-10 renal) was > 100 µM, the TGI (BT-549 breast) was > 100 µM and the TGI (NCI-H460 lung) was > 100 µM. For the same molecule, the TGI (SK-MEL-28 melanoma) was > 100 µM, the TGI (UACC-62 melanoma) was > 100 µM and the TGI (HOP-62 NSCLC) was > 100 µM. The TGI (MCF7 breast) was > 100 µM, the TGI (RPMI-8226 leukemia) was > 100 µM and the TGI (T-47D breast) was > 100 µM. The TGI (NCI-H23 lung) was > 100 µM, the TGI (OVCAR-5 ovarian) was > 100 µM and the TGI (SR leukemia) was > 100 µM. The TGI (SF-268 CNS) was > 100 µM, the TGI (COLO 205 colon) was > 100 µM and the TGI (SK-MEL-2 melanoma) was > 100 µM. For the same molecule, the TGI (MALME-3M melanoma) was > 100 µM, the TGI (OVCAR-8 ovarian) was > 100 µM and the TGI (MDA-N) was > 100 µM. The TGI (A549 NSCLC) was > 100 µM, the TGI (SK-OV-3 ovarian) was > 100 µM and the TGI (LOX IMVI melanoma) was > 100 µM. For the same molecule, the TGI (HCT-116 colon) was > 100 µM, the TGI (CAKI-1 renal) was > 100 µM and the TGI (OVCAR-4 ovarian) was > 100 µM. For the same molecule, the TGI (RXF 393 renal) was > 100 µM, the TGI (DU-145 prostate) was > 100 µM and the TGI (UACC-257 melanoma) was > 100 µM. For the same molecule, the TGI (HS 578T breast) was > 100 µM, the TGI (SK-MEL-5 melanoma) was > 100 µM and the TGI (IGROV1 ovarian) was > 100 µM. For the same molecule, the TGI (SN12C renal) was > 100 µM, the TGI (CCRF-CEM leukemia) was > 100 µM and the TGI (MDA-MB-231 breast) was > 100 µM. The TGI (HT29 colon) was > 100 µM, the TGI (MOLT-4 leukemia) was > 100 µM and the TGI (786-0 renal) was > 100 µM. The TGI (SF-539 CNS) was > 100 µM, the TGI (NCI/ADR-RES ovarian) was > 100 µM and the TGI (NCI-H226 lung) was > 100 µM. For the same molecule, the TGI (OVCAR-3 ovarian) was > 100 µM, the TGI (K-562 leukemia) was > 100 µM and the TGI (HL-60(TB) leukemia) was > 100 µM. The TGI (HCC-2998 colon) was > 100 µM and the TGI (SNB-75 CNS) was > 100 µM.
In the case of `Nc1nc(Cl)c(C=O)c(NCC2(CO)CC(CCc3ccccc3)C2)n1` (stereo not drawn), the TGI (KM12 colon) is reported as 28.5 µM, the TGI (HCT-15 colon) is reported as 13.8 µM and the TGI (PC-3 prostate) is reported as 16.3 µM. For the same molecule, the TGI (UO-31 renal) was 2910 nM, the TGI (NCI-H522 lung) was 3.56 µM and the TGI (MDA-MB-435) was 17.9 µM. The TGI (U251 CNS) was 26.6 µM, the TGI (HOP-92 NSCLC) was 4.46 µM and the TGI (A498 renal) was 42.1 µM. The TGI (SF-295 CNS) was 27 µM, the TGI (M14 melanoma) was 6.25 µM and the TGI (EKVX NSCLC) was 14.1 µM. For the same molecule, the TGI (SNB-19 CNS) was 27.9 µM, the TGI (SW-620 colon) was 15.3 µM and the TGI (ACHN renal) was 25.8 µM. It also gave a TGI (TK-10 renal) of 62.4 µM, a TGI (BT-549 breast) of 27.5 µM and a TGI (NCI-H460 lung) of 33.8 µM. The TGI (SK-MEL-28 melanoma) was 12.1 µM, the TGI (UACC-62 melanoma) was 16.2 µM and the TGI (HOP-62 NSCLC) was 28.6 µM. It also gave a TGI (MCF7 breast) of 51.8 µM, a TGI (RPMI-8226 leukemia) of 35.8 µM and a TGI (T-47D breast) of 31 µM. It also gave a TGI (NCI-H23 lung) of 5.49 µM, a TGI (OVCAR-5 ovarian) of 33.3 µM and a TGI (SR leukemia) of 4.15 µM. It also gave a TGI (SF-268 CNS) of 36.5 µM, a TGI (COLO 205 colon) of 24.2 µM and a TGI (SK-MEL-2 melanoma) of 19.2 µM. For the same molecule, the TGI (MALME-3M melanoma) was 30.2 µM, the TGI (OVCAR-8 ovarian) was 6.03 µM and the TGI (MDA-N) was 18.1 µM. It also gave a TGI (A549 NSCLC) of 25.5 µM, a TGI (SK-OV-3 ovarian) of 24.4 µM and a TGI (LOX IMVI melanoma) of 10.8 µM. For the same molecule, the TGI (HCT-116 colon) was 27.3 µM, the TGI (CAKI-1 renal) was 3.14 µM and the TGI (OVCAR-4 ovarian) was 4.21 µM. It also gave a TGI (RXF 393 renal) of 31.5 µM, a TGI (DU-145 prostate) of 30.8 µM and a TGI (UACC-257 melanoma) of 21.3 µM. The TGI (HS 578T breast) was 84.6 µM, the TGI (SK-MEL-5 melanoma) was 20.3 µM and the TGI (IGROV1 ovarian) was 3.48 µM. For the same molecule, the TGI (SN12C renal) was 19 µM, the TGI (CCRF-CEM leukemia) was 31.8 µM and the TGI (MDA-MB-231 breast) was 23.7 µM. It also gave a TGI (HT29 colon) of 27.7 µM, a TGI (MOLT-4 leukemia) of 9.01 µM and a TGI (786-0 renal) of 69.5 µM. It also gave a TGI (SF-539 CNS) of 17.8 µM, a TGI (NCI/ADR-RES ovarian) of 47.6 µM and a TGI (NCI-H226 lung) of 27.7 µM. For the same molecule, the TGI (OVCAR-3 ovarian) was 24.4 µM, the TGI (K-562 leukemia) was 4.57 µM and the TGI (HL-60(TB) leukemia) was 3.34 µM. The TGI (HCC-2998 colon) was 4.94 µM and the TGI (SNB-75 CNS) was 37.5 µM.
